# In patent publication EP0164635A2, “Imidazothiazolemethylene-acetohydrazide derivatives, preparation thereof and pharmaceutical composition having diuretic activity” (MEDIOLANUM FARMACEUTICI s.r.l., priority 1984, dated 1985):
# Several values for one entry are separate records, joined by “and”; a condition that tells them apart may be missing. Equal values may be shown once.
# How the values were obtained:
# [1] = system: rat; experiment: Excreted urinary volumes after oral administration, with a second water load after 0-3 h; type: in vivo
# Method: (§1) The compounds were administered by the oral route, under the same conditions as described in the previous test, but the animals, after the O-3 hours interval, were treated with further 25 ml/kg of distilled water, by intubation.
# [2] = in vivo; conditions: rat
# [3] = system: rats; experiment: Diuretic activity: urinary sodium excretion over 6 hours after oral administration; type: in vivo, rat; conditions: rat, sodium urinary excretion in 6 h vs controls (control = 100), read-out: Diuretic effect %; for response vs control in vivo at 10 mg/kg: dose 10 mg/kg oral; for response vs control in vivo at 20 mg/kg: dose 20 mg/kg oral
# Method: The first series of tests was carried out to rats orally administered with distilled water (25 ml/kg) containing the product under test, previously suspended in Tween 80 (1% v/v with respect to water). Urina of the 6 hours following the treatment was collected in order to measure the sodium concentration, by means of atomic absorption. The ratio of the meq/100 g of body weight of the treated animals to the corresponding ratio of the meq/100 g of body weight of the control animals (treated with the sole vehicle) was calculated, in order to determine the dose of the test compound doubling or trebling or anyway increasing the sodium excretion.
# [4] = system: rat; experiment: Excreted urinary electrolytes after oral administration, with a second water load after 0-3 h; type: in vivo
# Method: as §1
smiles,measurement,setting,value
"Cc1cn2c(C=NNC(=O)CN(C)C)c(-c3ccccc3)nc2s1 [Example 8, N,N-Dimethylaminoacetyl-[[2-methyl-6-phenyl-imida-zo[2,1-b]thiazole-5-yl]methylene]hydrazide]",EXCRETED URINARY VOLUMES WITH RESPECT TO BODY WEIGHT,"[1]; 2.5 mg/kg, 0-3 h",0.0265 L/kg
same,EXCRETED URINARY VOLUMES WITH RESPECT TO BODY WEIGHT,"[1]; 2.5 mg/kg, 0-6 h",0.0432 L/kg
same,EXCRETED URINARY VOLUMES WITH RESPECT TO BODY WEIGHT,"[1]; 2.5 mg/kg, 3-6 h",0.0167 L/kg
same,EXCRETED URINARY VOLUMES WITH RESPECT TO BODY WEIGHT,"[1]; 10 mg/kg, 0-3 h",0.0345 L/kg
same,EXCRETED URINARY VOLUMES WITH RESPECT TO BODY WEIGHT,"[1]; 10 mg/kg, 0-6 h",0.0509 L/kg
same,EXCRETED URINARY VOLUMES WITH RESPECT TO BODY WEIGHT,"[1]; 10 mg/kg, 3-6 h",0.0164 L/kg
same,LD50,[2]; ip,> 3000 mg/kg
same,LD50,[2]; po,> 3000 mg/kg
same,response vs control in vivo at 1 mg/kg,[3]; dose 1 mg/kg oral,300%
same,"EXCRETED URINARY ELECTROLYTES WITH RESPECT TO BODY WEIGHT, K^+","[4]; 10 mg/kg, 0-3 h",0.66 mEq/kg
same,"EXCRETED URINARY ELECTROLYTES WITH RESPECT TO BODY WEIGHT, Na^+","[4]; 10 mg/kg, 0-3 h",2.24 mEq/kg
same,"EXCRETED URINARY ELECTROLYTES WITH RESPECT TO BODY WEIGHT, K^+","[4]; 10 mg/kg, 0-6 h",0.99 mEq/kg
same,"EXCRETED URINARY ELECTROLYTES WITH RESPECT TO BODY WEIGHT, Na^+","[4]; 10 mg/kg, 0-6 h",2.39 mEq/kg
same,"EXCRETED URINARY ELECTROLYTES WITH RESPECT TO BODY WEIGHT, K^+","[4]; 10 mg/kg, 3-6 h",0.33 mEq/kg
same,"EXCRETED URINARY ELECTROLYTES WITH RESPECT TO BODY WEIGHT, Na^+","[4]; 10 mg/kg, 3-6 h",0.15 mEq/kg
same,"EXCRETED URINARY ELECTROLYTES WITH RESPECT TO BODY WEIGHT, K^+","[4]; head prints 10 mg/kg, 0-3 h",0.48 mEq/kg
same,"EXCRETED URINARY ELECTROLYTES WITH RESPECT TO BODY WEIGHT, Na^+","[4]; head prints 10 mg/kg, 0-3 h",1.32 mEq/kg
same,"EXCRETED URINARY ELECTROLYTES WITH RESPECT TO BODY WEIGHT, K^+","[4]; head prints 10 mg/kg, 0-6 h",0.83 mEq/kg
same,"EXCRETED URINARY ELECTROLYTES WITH RESPECT TO BODY WEIGHT, Na^+","[4]; head prints 10 mg/kg, 0-6 h",1.38 mEq/kg
same,"EXCRETED URINARY ELECTROLYTES WITH RESPECT TO BODY WEIGHT, K^+","[4]; head prints 10 mg/kg, 3-6 h",0.35 mEq/kg
same,"EXCRETED URINARY ELECTROLYTES WITH RESPECT TO BODY WEIGHT, Na^+","[4]; head prints 10 mg/kg, 3-6 h",0.056 mEq/kg
CN(C)CC(=O)NN=Cc1c(-c2ccccc2)nc2n1CCS2 [Example 9],LD50,[2]; ip,> 1000 mg/kg
same,LD50,[2]; po,> 3000 mg/kg
same,response vs control in vivo at 10 mg/kg,[3],230%
Cc1nc2n(c1C=NNC(=O)CN(C)C)CCS2 [Example 10],LD50,[2]; ip,> 1000 mg/kg
same,LD50,[2]; po,> 1000 mg/kg
CN(C)CC(=O)NN=Cc1c(-c2ccc(Cl)cc2)nc2n1CCS2 [Example 11],LD50,[2]; ip,~600 mg/kg
same,LD50,[2]; po,~800 mg/kg
same,response vs control in vivo at 20 mg/kg,[3],230%
Cc1ccc(-c2nc3n(c2C=NNC(=O)CN(C)C)CCS3)cc1 [Example 12],LD50,[2]; ip,~600 mg/kg
same,LD50,[2]; po,~800 mg/kg
same,response vs control in vivo at 20 mg/kg,[3],120%
NCC(=O)NN=Cc1c(-c2ccccc2)nc2sccn12 [Example 14],LD50,[2]; po,> 1000 mg/kg
same,response vs control in vivo at 20 mg/kg,[3],130%
"NS(=O)(=O)c1cc(C(=O)O)c(NCc2ccco2)cc1Cl [Furosemide, furosemide, reference compound]",EXCRETED URINARY VOLUMES WITH RESPECT TO BODY WEIGHT,"[1]; 10 mg/kg, 0-3 h",0.0365 L/kg and 0.0265 L/kg
same,EXCRETED URINARY VOLUMES WITH RESPECT TO BODY WEIGHT,"[1]; 10 mg/kg, 0-6 h",0.0451 L/kg and 0.0472 L/kg
same,EXCRETED URINARY VOLUMES WITH RESPECT TO BODY WEIGHT,"[1]; 10 mg/kg, 3-6 h",0.0107 L/kg and 0.0186 L/kg
same,response vs control in vivo at 10 mg/kg,[3],490%
same,"EXCRETED URINARY ELECTROLYTES WITH RESPECT TO BODY WEIGHT, K^+","[4]; 10 mg/kg, 0-3 h",0.87 mEq/kg and 1.02 mEq/kg
same,"EXCRETED URINARY ELECTROLYTES WITH RESPECT TO BODY WEIGHT, Na^+","[4]; 10 mg/kg, 0-3 h",1.30 mEq/kg and 1.82 mEq/kg
same,"EXCRETED URINARY ELECTROLYTES WITH RESPECT TO BODY WEIGHT, K^+","[4]; 10 mg/kg, 0-6 h",1.15 mEq/kg and 1.11 mEq/kg
same,"EXCRETED URINARY ELECTROLYTES WITH RESPECT TO BODY WEIGHT, Na^+","[4]; 10 mg/kg, 0-6 h",1.38 mEq/kg and 1.85 mEq/kg
same,"EXCRETED URINARY ELECTROLYTES WITH RESPECT TO BODY WEIGHT, K^+","[4]; 10 mg/kg, 3-6 h",0.24 mEq/kg and 0.13 mEq/kg
"NS(=O)(=O)c1cc2c(cc1C(F)(F)F)NCNS2(=O)=O [Hydroflumethia-zide, hydroflumethiazide, reference compound]",LD50,[2]; iv,750 mg/kg
same,response vs control in vivo at 5 mg/kg,[3]; dose 5 mg/kg oral,260%
"CC(=O)S[C@@H]1CC2=CC(=O)CC[C@]2(C)[C@H]2CC[C@@]3(C)[C@@H](CC[C@@]34CCC(=O)O4)[C@H]12 [Spironolactone, spironolactone, reference compound]",response vs control in vivo at 20 mg/kg,[3],360%
